Experimental data as given in patent US8729081B2, “Compositions and methods for treating alcohol use disorders, pain and other diseases” (VM Discovery Inc., priority 2008, dated 2014).

Assays:
[1] = molecular target: T1, PKCε (h) (Homo sapiens, UniProt Q02156); experiment: In vitro PKCε kinase assay (radiometric, [γ-33P-ATP], HotSpot); type: biochemical; details: recombinant human PKCε, 10 μM ATP; read-out: IC50 in antagonizing the PKCε
T1 construct: host or cells: insect cells
T1 sequence (Q02156 1-737): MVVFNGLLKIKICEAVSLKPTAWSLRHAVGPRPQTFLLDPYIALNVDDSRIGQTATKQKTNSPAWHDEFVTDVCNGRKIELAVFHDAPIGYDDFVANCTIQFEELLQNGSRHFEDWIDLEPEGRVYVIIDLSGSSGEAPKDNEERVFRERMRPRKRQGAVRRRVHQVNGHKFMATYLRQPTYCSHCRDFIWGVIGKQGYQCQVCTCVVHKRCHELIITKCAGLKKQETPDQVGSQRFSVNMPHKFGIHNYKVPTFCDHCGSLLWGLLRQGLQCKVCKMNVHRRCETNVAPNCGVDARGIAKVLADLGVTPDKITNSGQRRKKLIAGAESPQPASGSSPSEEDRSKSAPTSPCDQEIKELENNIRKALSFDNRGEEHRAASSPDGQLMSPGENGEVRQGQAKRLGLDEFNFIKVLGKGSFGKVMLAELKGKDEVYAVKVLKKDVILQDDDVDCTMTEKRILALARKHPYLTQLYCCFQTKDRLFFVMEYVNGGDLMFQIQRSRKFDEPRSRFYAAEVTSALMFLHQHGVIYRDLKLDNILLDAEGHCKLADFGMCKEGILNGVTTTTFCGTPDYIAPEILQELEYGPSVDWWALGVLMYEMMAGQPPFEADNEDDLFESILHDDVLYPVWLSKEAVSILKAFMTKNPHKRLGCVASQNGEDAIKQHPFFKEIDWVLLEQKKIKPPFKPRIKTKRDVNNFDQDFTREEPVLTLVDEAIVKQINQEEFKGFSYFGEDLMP
Protocol: There are many in vitro commercially available and validated bioassays (Ma, H., et al, Expert Opin Drug Discov. 2008 June; 3(6): 607-621 and references therein) which can be used to characterize the activities of compounds of the present invention against PKCε protein kinase. Compounds can be tested against the activity of recombinant PKCε. In a final reaction volume of 25 μL, PKCε (h) (0.4 nM, Human recombinant protein expressed in insect cells. Mw=83.7 kDa) is incubated with kinase buffer (20 mM HEPES-HCl, pH 7.5, 10 mM MgCl2, 1 mM EGTA, 0.02% Brij35, 0.1 mM Na3VO4, 0.02 mg/ml BSA, 2 mM DTT, and 1% DMSO), 0.1 mg/mL phosphatidylserine, 10 μg/mL diacylglycerol, 20 μM S25-PKC peptide substrate (RFARKGSLRQKNV-OH, Mw=1561 Da), 10 mM MgAcetate and 10 μM [γ-33P-ATP] (specific activity approx. 500 cpm/pmol). The reaction is initiated by the addition of the MgATP mix. After incubation for 40 minutes at room temperature, the reaction is stopped by the addition of 5 μL of a 3% phosphoric acid solution. 10 μL of the reaction is then spotted onto a P30 filtermat and washed three times for 5 minutes in 75 mM phosphoric acid and once in methanol prior to drying and scintillation counting Control samples are incubated without inhibitor to measure maximal activity or with the general kinase inhibitor Staurosporine (5 μM) to measure complete inhibition. For each compound the % inhibition can be calculated by the formula, or by curve fits: % Inhibition=(Max activity−Activity with compound)/(Max activity−Activity with Control)*100. Compounds with inhibitory activity are assayed using at least 5 concentrations (1 nM-300 μM). Concentrations are adjusted to generate a complete dose-response curve. Each sample is assayed in duplicate and each experiment is repeated three times. Results are fitted by non-linear regression analysis to a sigmoidal dose-response curve with variable slope to calculate Hill slope, log IC50 and Imax values for each inhibitor, using the program Prism 5 (GraphPad Software, Inc., San Diego, Calif.).
Kinase profiling was performed using HotSpot technology (Reaction Biology Corp. 11 Malvern, Pa., USA). This technology is a radioisotope-based P81 filter-binding assay. Compound of the present invention were dissolved in pure DMSO to make a 10 mM stock, then diluted in pure DMSO to make a serial dilution based on the IC50 ranges. PKCε (h) (0.4 nM, human recombinant protein expressed in insect cells. Mw=83.7 kDa) and substrate (20 μM peptide substrate, [RFARKGSLRQKNV]) were diluted in the reaction buffer (20 mM HEPES-HCl, pH 7.5, 10 mM MgCl2, 1 mM EGTA, 0.02% Brij35, 0.1 mM Na3VO4, 0.02 mg/ml BSA, 2 mM DTT, and 1% DMSO), and then 5 nL of compound was delivered into PKCε (h) and substrate mixture by acoustic technology using Echo 550 (LabCyte Inc., Sunnyvale, Calif.). The reaction was initiated by the addition of [γ-33P-ATP] into the reaction mixture (final concentration was 10 μM) and stopped after at least 40 min incubation at room temperature. The unreacted free 33P-ATP was washed away before detection.
The intrinsic PKCε antagonist activity of a compound which may be used in the present invention may be determined by these assays. […] Such a result is indicative of the intrinsic activity of the compounds in use as antagonists of PKCε.

[2] = test system: C57BL/6J mice; experiment: Alcohol intake in Drink-in-Dark (DID) model; type: in vivo; details: 4-hr drinking in the dark (DID) protocol, compared with vehicle control, FIG. 2
Excerpt: FIG. 2. […] The data are presented as mean±SEM. *p<0.05, ***p<0.001 as compared with the vehicle control.
Alcohol Intake in Drink-in-Dark (DID) model (Rhodes J S, et al, Physiol Behav. (2005) 84:53-63). Mice are acclimated in animal facility and housed three to four per cage in standard cages until 1 week prior to the start of an experiment when they are transferred to individual housing. Approximately 2 weeks prior to the start of an experiment, the mice are switched to a reverse light/dark schedule such that lights turned on at 2030 h and off at 0830 h. Food (Purina 5001™) is always provided ad libitum. Water is provided ad libitum except when ethanol is substituted for water for 4 h per day. The animals are divided into 4 groups and given intraperitoneal (i.p.) injections of vehicle, and a test article (TA) at 5, 20 and 50 mg/kg body weight, respectively, starting 3 h after lights off in the animal rooms. Then the water bottles are replaced with 10 ml graduated cylinders fitted with sipper tubes containing 20% (v/v) ethanol in tap water. The ethanol cylinders remain in place for 4 h. The fluid levels are checked every 30 minutes for 4 h. After the 4-h period, the ethanol cylinders are replaced with water bottles. […] Similarly, mice are administered with TA by oral gavage and ethanol or water intake is monitored for 4 h.

Compound	IC50 [1] [µM]	oral intake of alcohol (20% ethanol) [2]
O=C(NCCCN1CCCCCC1)c1ccc(C=C2Sc3ccccc3N(Cc3ccccc3F)C2=O)cc1 (mixture of isomers) [Compound 485, N-[3-(azepan-1-yl)propyl]-4-{(Z/E)-[4-(2-fluorobenzyl)-3-oxo-3,4-dihydro-2H-1,4-benzothiazin-2-ylidene]methyl}benzamide]	0.01 to 1	–
O=C(NCCCN1CCCC1)c1ccc(C=C2Oc3ccccc3N(Cc3ccccc3C(F)(F)F)C2=O)cc1 (mixture of isomers) [Compound 801, 4-[(Z/E)-{3-oxo-4-[2-(trifluoromethyl)benzyl]-3,4-dihydro-2H-1,4-benzoxazin-2-ylidene}methyl]-N-[3-(pyrrolidin-1-yl)propyl]benzamide]	0.01 to 1	–
O=C(NCN1CCC2CCCCC2C1)c1ccc(/C=C2\Oc3ccccc3N(Cc3ccccc3F)C2=O)cc1 (mixture of isomers) [Compound 817, 4-{(Z/E)-[4-(2-fluorobenzyl)-3-oxo-3,4-dihydro-2H-1,4-benzoxazin-2-ylidene]methyl}-N-(octahydroisoquinolin-2(1H)-ylmethyl)benzamide]	0.01 to 1	–
CC(=C1Oc2ccccc2N(Cc2ccc(F)cc2)C1=O)c1ccc(C(=O)NCCCN2CCCCCC2)cc1 (mixture of isomers) [Compound 821, N-[3-(azepan-1-yl)propyl]-4-{(1Z/1E)-1-[4-(4-fluorobenzyl)-3-oxo-3,4-dihydro-2H-1,4-benzoxazin-2-ylidene]ethyl}benzamide]	0.01 to 1	–
O=C(NCCCc1ccncc1)c1ccc(C=C2Sc3ccccc3N(Cc3ccccc3F)C2=O)cc1 (mixture of isomers) [Compound 825, 4-{(Z/E)-[4-(2-fluorobenzyl)-3-oxo-3,4-dihydro-2H-1,4-benzothiazin-2-ylidene]methyl}-N-[3-(pyridin-4-yl)propyl]benzamide]	0.01 to 1	–
CC(=C1Oc2ccccc2N(Cc2ccc(F)cc2)C1=O)c1ccc(C(=O)NCCCN2CCOCC2)cc1 (mixture of isomers) [Compound 829, N-4-{(1Z/1E)-1-[4-(4-fluorobenzyl)-3-oxo-3,4-dihydro-2H-1,4-benzoxazin-2-ylidene]ethyl}-N-[3-(morpholin-4-yl)propyl]benzamide]	0.01 to 1	–
CN(CCCN1CCOCC1)C(=O)c1ccc(C=C2Oc3ccccc3N(Cc3ccccc3F)C2=O)cc1 (mixture of isomers) [Compound 841, 4-{(Z/E)-[4-(2-fluorobenzyl)-3-oxo-3,4-dihydro-2H-1,4-benzoxazin-2-ylidene]methyl}-N-methyl-N-[3-(morpholin-4-yl)propyl]benzamide]	0.01 to 1	–
O=C(NCCCN1CCCC1)c1ccc(/C=C2\Oc3ccccc3N(Cc3ccccc3F)C2=O)cc1 [Compound 483, 4-{(Z/E)-[4-(2-fluorobenzyl)-3-oxo-3,4-dihydro-2H-1,4-benzoxazin-2-ylidene]methyl}-N-[3-(pyrrolidin-1-yl)propyl]benzamide hydrate]	0.01 to 1	–
C/C(=C1/Oc2ccccc2N(Cc2ccc(F)cc2F)C1=O)c1ccc(C(=O)NCCCN2CCOCC2)cc1 [Compound 837, 4-{(1Z/1E)-1-[4-(2,4-difluorobenzyl)-3-oxo-3,4-dihydro-2H-1,4-benzoxazin-2-ylidene]ethyl}-N-[3-(morpholin-4-yl)propyl]benzamide]	0.01 to 1	–
Cc1oc(-c2cccc(Cl)c2)nc1CN1CCC(C(=O)NCCCN2CCC(Cc3cccc(Cl)c3)CC2)CC1 [Compound 911, N-{3-[4-(3-chlorobenzyl)piperidin-1-yl]propyl}-1-{[2-(3-chlorophenyl)-5-methyl-1,3-oxazol-4-yl]methyl}piperidine-4-carboxamide]	0.01 to 1	–

Continued, in another order:

IC50 [1] [µM]	Compound	oral intake of alcohol (20% ethanol) [2]
0.01 to 1	Cc1oc(-c2ccc(Cl)cc2)nc1CN1CCC(C(=O)NCCN2CCCC2)CC1 [Compound 597, 1-{[2-(4-chlorophenyl)-5-methyl-1,3-oxazol-4-yl]methyl}-N-(2-pyrrolidin-1-ylethyl)piperidine-4-carboxamide]	–
0.01 to 1	Cc1oc(-c2ccc(Cl)cc2)nc1CN1CCC(C(=O)NCCCN2CCCCCC2)CC1 [Compound 901, N-[3-(azepan-1-yl)propyl]-1-{[2-(4-chlorophenyl)-5-methyl-1,3-oxazol-4-yl]methyl}piperidine-4-carboxamide]	significantly reduced
0.01 to 1	Cc1oc(-c2ccc(Cl)cc2)nc1CN1CCC(C(=O)NCCCN2CCC(Cc3ccccc3)CC2)CC1 [Compound 907, N-[3-(4-benzylpiperidin-1-yl)propyl]-1-{[2-(4-chlorophenyl)-5-methyl-1,3-oxazol-4-yl]methyl}piperidine-4-carboxamide]	–
0.01 to 1	Cc1oc(-c2ccc(Cl)cc2)nc1CN1CCC(C(=O)N(C)CCCN2CCCCCC2)CC1 [Compound 929, N-[3-(azepan-1-yl)propyl]-1-{[2-(4-chlorophenyl)-5-methyl-1,3-oxazol-4-yl]methyl}-N-methylpiperidine-4-carboxamide]	–
0.01 to 1	Cc1oc(-c2ccc(Cl)cc2)nc1CN1CCC(C(=O)NCCCN2CCOCC2)CC1 [Compound 935, 1-{[2-(4-chlorophenyl)-5-methyl-1,3-oxazol-4-yl]methyl}-N-[3-(morpholin-4-yl)propyl]piperidine-4-carboxamide]	–
0.01 to 1	Cc1oc(-c2ccc3c(c2)OCO3)nc1CN1CCC(C(=O)NCCCN2CCCCCC2)CC1 [Compound 949, N-[3-(azepan-1-yl)propyl]-1-{[2-(1,3-benzodioxol-5-yl)-5-methyl-1,3-oxazol-4-yl]methyl}piperidine-4-carboxamide]	–
